The results in this text go back to patent publication US7973061B2, “Anaplastic lymphoma kinase modulators and methods of use” (Exelixis, Inc., priority 2004, dated 2011).

In the assay the target is T1, ALK (baculovirus expressed human ALK kinase domain F1098-K1410) (Homo sapiens, UniProt Q9UM73).
T1 construct: human ALK kinase domain F1098-K1410; made in house
T1 sequence (Q9UM73 1098-1410): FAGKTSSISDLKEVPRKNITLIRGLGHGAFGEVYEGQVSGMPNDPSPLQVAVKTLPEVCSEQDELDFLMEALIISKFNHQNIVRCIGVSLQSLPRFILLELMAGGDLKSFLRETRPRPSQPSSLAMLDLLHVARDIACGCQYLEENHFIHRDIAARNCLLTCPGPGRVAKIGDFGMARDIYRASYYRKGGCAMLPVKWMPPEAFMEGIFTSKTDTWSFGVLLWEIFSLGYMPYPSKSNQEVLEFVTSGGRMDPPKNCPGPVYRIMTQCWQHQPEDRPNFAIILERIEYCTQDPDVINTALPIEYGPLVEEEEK
Description: biochemical. The following applies: 1 μM ATP, 4 μM poly-AEKY, 12 nM ALK, 2 hours at ambient temperature; read-out: ALK IC50. A digest of the protocol:
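Baculovirus-expressed human ALK kinase domain (F1098-K1410) was run in a luciferase-coupled chemiluminescent format, with ATP near its KM. After 2 h at ambient temperature, remaining ATP was read by luciferase-luciferin luminescence. IC50 came from 10-point dose-response curves fitted to a four-parameter equation with Hill slope.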
With `O=C(COc1ccc(OC(F)(F)F)cc1)NCc1nc(C(=O)NCc2ccc(F)cc2)co1` [Entry 292, N-[(4-fluorophenyl)methyl]-2-({[({4-[(trifluoromethyl)oxy]phenyl}oxy)acetyl]amino}methyl)-1,3-oxazole-4-carboxamide], the IC50 was in the range of 500 to 2000 nM. As for `CC(C)c1ccc(OCC(=O)NCc2nc(C(=O)NCCc3ccccc3F)cs2)cc1` [Entry 55, N-[2-(2-fluorophenyl)ethyl]-2-{[({[4-(1-methylethyl)phenyl]oxy}acetyl)amino]methyl}-1,3-thiazole-4-carboxamide], the half-maximal inhibitory concentration (IC50) lay in the range of 50 to 500 nM. In the case of `CC(C)CCC(C)NC(=O)c1csc(CNC(=O)COc2ccc(OC(F)(F)F)cc2)n1` (stereo not shown) [Entry 262, N-(1,4-dimethylpentyl)-2-({[({4-[(trifluoromethyl)oxy]phenyl}oxy)acetyl]amino}methyl)-1,3-thiazole-4-carboxamide] it was 500 to 2000 nM; in that of `O=C(COc1ccc(OC(F)(F)F)cc1)NCc1nc(C(=O)N2Cc3ccccc3C2)cs1` [Entry 3, N-{[4-(1,3-dihydro-2H-isoindol-2-ylcarbonyl)-1,3-thiazol-2-yl]methyl}-2-({4-[(trifluoromethyl)oxy]phenyl}oxy)acetamide], less than 50 nM.

In the case of `Cc1ccc(F)cc1CNC(=O)c1csc(CNC(=O)COc2ccc(OC(F)(F)F)cc2)n1` [Entry 47, N-[(5-fluoro-2-methylphenyl)methyl]-2-({[({4-[(trifluoromethyl)oxy]phenyl}oxy)acetyl]amino}methyl)-1,3-thiazole-4-carboxamide], the IC50 was in the range of 50 to 500 nM. The same measure for `O=C(COc1ccc(OC(F)(F)F)cc1)NCc1nc(C(=O)NCc2cccc(I)c2)cs1` [Entry 157, N-[(3-iodophenyl)methyl]-2-({[({4-[(trifluoromethyl)oxy]phenyl}oxy)acetyl]amino}methyl)-1,3-thiazole-4-carboxamide]: 50 to 500 nM. In the case of `CSCCCNC(=O)c1csc(CNC(=O)COc2ccc(OC(F)(F)F)cc2)n1` [Entry 149, N-[3-(methylthio)propyl]-2-({[({4-[(trifluoromethyl)oxy]phenyl}oxy)acetyl]amino}methyl)-1,3-thiazole-4-carboxamide] it was 50 to 500 nM. In the case of `C#CC(CC)(CC)NC(=O)c1csc(CNC(=O)COc2ccc(OC(F)(F)F)cc2)n1` [Entry 147, N-(1,1-diethylprop-2-yn-1-yl)-2-({[({4-[(trifluoromethyl)oxy]phenyl}oxy)acetyl]amino}methyl)-1,3-thiazole-4-carboxamide], the IC50 lay within 50 to 500 nM. In the case of `CN(C(=O)OC(C)(C)C)C1CCN(C(=O)c2csc(CNC(=O)COc3ccc(OC(F)(F)F)cc3)n2)C1` (stereo not shown) [Entry 295, 1,1-dimethylethyl methyl(1-{[2-({[({4-[(trifluoromethyl)oxy]phenyl}oxy)acetyl]amino}methyl)-1,3-thiazol-4-yl]carbonyl}pyrrolidin-3-yl)carbamate] it was 500 to 2000 nM; in that of `O=C(COc1ccc(OC(F)(F)F)cc1)NCc1nc(C(=O)NCCc2cccc(Cl)c2)cs1` [Entry 2, N-[2-(3-chlorophenyl)ethyl]-2-({[({4-[(trifluoromethyl)oxy]phenyl}oxy)acetyl]amino}methyl)-1,3-thiazole-4-carboxamide], less than 50 nM. The same measure for `O=C(COc1ccc(OC(F)(F)F)cc1)NCc1nc(C(=O)NCc2ccc(Cl)cc2Cl)cs1` [Entry 64, N-[(2,4-dichlorophenyl)methyl]-2-({[({4-[(trifluoromethyl)oxy]phenyl}oxy)acetyl]amino}methyl)-1,3-thiazole-4-carboxamide]: 50 to 500 nM; for `O=C(COc1ccc(OC(F)(F)F)cc1)NCc1nc(C(=O)NCCc2ccc(Cl)cc2)cs1` [Entry 83, N-[2-(4-chlorophenyl)ethyl]-2-({[({4-[(trifluoromethyl)oxy]phenyl}oxy)acetyl]amino}methyl)-1,3-thiazole-4-carboxamide]: 50 to 500 nM. Consider `CCN(CC)C1CCN(C(=O)c2csc(CNC(=O)COc3ccc(OC(F)(F)F)cc3)n2)C1` (stereo not shown) [Entry 311, N-[(4-{[3-(diethylamino)pyrrolidin-1-yl]carbonyl}-1,3-thiazol-2-yl)methyl]-2-({4-[(trifluoromethyl)oxy]phenyl}oxy)acetamide], for which the half-inhibitory concentration (IC50) is more than 2000 nM.

As for `O=C(COc1ccc(OC(F)(F)F)cc1)NCc1nc(C(=O)NCc2cccs2)cs1` [Entry 164, N-(2-thienylmethyl)-2-({[({4-[(trifluoromethyl)oxy]phenyl}oxy)acetyl]amino}methyl)-1,3-thiazole-4-carboxamide], the half-inhibitory concentration (IC50) lay within 50 to 500 nM.

Regarding `O=C(COc1ccc(OC(F)(F)F)cc1)NCc1nc(C(=O)NCCSCc2ccco2)cs1` [Entry 71, N-{2-[(furan-2-ylmethyl)thio]ethyl}-2-({[({4-[(trifluoromethyl)oxy]phenyl}oxy)acetyl]amino}methyl)-1,3-thiazole-4-carboxamide], the IC50 lay in the range of 50 to 500 nM. The same measure for `O=C(COc1ccc(OC(F)(F)F)cc1)NCc1nc(C(=O)NCC2c3ccccc3CCc3ccccc32)cs1` [Entry 4, N-(10,11-dihydro-5H-dibenzo[a,d]cyclohepten-5-ylmethyl)-2-({[({4-[(trifluoromethyl)oxy]phenyl}oxy)acetyl]amino}methyl)-1,3-thiazole-4-carboxamide]: less than 50 nM; for `O=C(COc1ccc(OC(F)(F)F)cc1)NCc1nc(C(=O)NCCCN2CCCC2=O)cs1` [Entry 286, N-[3-(2-oxopyrrolidin-1-yl)propyl]-2-({[({4-[(trifluoromethyl)oxy]phenyl}oxy)acetyl]amino}methyl)-1,3-thiazole-4-carboxamide]: 500 to 2000 nM.

Consider `CC(C)c1ccc(CC(=O)NCc2nc(C(=O)NCCc3ccccc3F)cs2)cc1` [Entry 114, N-[2-(2-fluorophenyl)ethyl]-2-[({[4-(1-methylethyl)phenyl]acetyl}amino)methyl]-1,3-thiazole-4-carboxamide], for which the 50% inhibitory concentration (IC50) lay within 50 to 500 nM.

As to `CC(C)CNC(=O)c1csc(CNC(=O)COc2ccc(OC(F)(F)F)cc2)n1` [Entry 94, N-(2-methylpropyl)-2-({[({4-[(trifluoromethyl)oxy]phenyl}oxy)acetyl]amino}methyl)-1,3-thiazole-4-carboxamide], the 50% inhibitory concentration (IC50) was in the range of 50 to 500 nM.

Regarding `CC(C)(C)CCNC(=O)c1csc(CNC(=O)COc2ccc(OC(F)(F)F)cc2)n1` [Entry 175, N-(3,3-dimethylbutyl)-2-({[({4-[(trifluoromethyl)oxy]phenyl}oxy)acetyl]amino}methyl)-1,3-thiazole-4-carboxamide], the IC50 lay in the range of 50 to 500 nM. Turning to `O=C(COc1ccc(OC(F)(F)F)cc1)NCc1nc(C(=O)NCCc2c[nH]c3ccccc23)cs1` [Entry 45, N-[2-(1H-indol-3-yl)ethyl]-2-({[({4-[(trifluoromethyl)oxy]phenyl}oxy)acetyl]amino}methyl)-1,3-thiazole-4-carboxamide], the concentration for half-maximal inhibition (IC50) lay within 50 to 500 nM. `CCC(C)CNC(=O)c1csc(CNC(=O)COc2ccc(OC(F)(F)F)cc2)n1` (stereo not shown) [Entry 210, N-(2-methylbutyl)-2-({[({4-[(trifluoromethyl)oxy]phenyl}oxy)acetyl]amino}methyl)-1,3-thiazole-4-carboxamide]: the IC50 fell in the range of 50 to 500 nM. The same measure for `CCOc1cccc(CCNC(=O)c2csc(CNC(=O)COc3ccc(OC(F)(F)F)cc3)n2)c1` [Entry 28, N-{2-[3-(ethyloxy)phenyl]ethyl}-2-({[({4-[(trifluoromethyl)oxy]phenyl}oxy)acetyl]amino}methyl)-1,3-thiazole-4-carboxamide]: 50 to 500 nM; for `O=C(COc1ccc(OC(F)(F)F)cc1)NCc1nc(C(=O)NCCc2ccccc2F)cs1` [Entry 5, N-[2-(2-fluorophenyl)ethyl]-2-({[({4-[(trifluoromethyl)oxy]phenyl}oxy)acetyl]amino}methyl)-1,3-thiazole-4-carboxamide]: less than 50 nM. As to `O=C(COc1ccc(OC(F)(F)F)cc1)NCc1nc(C(=O)NCCc2ccccc2F)co1` [Entry 143, N-[2-(2-fluorophenyl)ethyl]-2-({[({4-[(trifluoromethyl)oxy]phenyl}oxy)acetyl]amino}methyl)-1,3-oxazole-4-carboxamide], the IC50 was 50 to 500 nM. In the case of `C#CC1(NC(=O)c2csc(CNC(=O)COc3ccc(OC(F)(F)F)cc3)n2)CCCCC1` [Entry 180, N-(1-ethynylcyclohexyl)-2-({[({4-[(trifluoromethyl)oxy]phenyl}oxy)acetyl]amino}methyl)-1,3-thiazole-4-carboxamide] it was 50 to 500 nM; in that of `CC1CCCN(C(=O)c2csc(CNC(=O)COc3ccc(OC(F)(F)F)cc3)n2)C1` (stereo not shown) [Entry 289, N-({4-[(3-methylpiperidin-1-yl)carbonyl]-1,3-thiazol-2-yl}methyl)-2-({4-[(trifluoromethyl)oxy]phenyl}oxy)acetamide], 500 to 2000 nM. The same measure for `NC(=O)[C@H](Cc1ccccc1)NC(=O)c1csc(CNC(=O)COc2ccc(OC(F)(F)F)cc2)n1` [Entry 188, Nalpha-{[2-({[({4-[(trifluoromethyl)oxy]phenyl}oxy)acetyl]amino}methyl)-1,3-thiazol-4-yl]carbonyl}-L-phenylalaninamide]: 50 to 500 nM. As to `O=C(COc1ccc(OC(F)(F)F)cc1)NCc1nc(C(=O)NCc2ccc(F)c(C(F)(F)F)c2)cs1` [Entry 174, N-{[4-fluoro-3-(trifluoromethyl)phenyl]methyl}-2-({[({4-[(trifluoromethyl)oxy]phenyl}oxy)acetyl]amino}methyl)-1,3-thiazole-4-carboxamide], the half-inhibitory concentration (IC50) lay within 50 to 500 nM. In the case of `O=C(COc1ccc(OC(F)(F)F)cc1)NCc1nc(C(=O)NCCCN2CCOCC2)cs1` [Entry 267, N-(3-morpholin-4-ylpropyl)-2-({[({4-[(trifluoromethyl)oxy]phenyl}oxy)acetyl]amino}methyl)-1,3-thiazole-4-carboxamide] it was 500 to 2000 nM. In the case of `O=C(COc1ccc(OC(F)(F)F)cc1)NCc1nc(C(=O)N2CCCC3CCCCC32)cs1` (stereo not shown) [Entry 252, N-{[4-(octahydroquinolin-1(2H)-ylcarbonyl)-1,3-thiazol-2-yl]methyl}-2-({4-[(trifluoromethyl)oxy]phenyl}oxy)acetamide] it was 500 to 2000 nM.
